Results: patent US20110280930A1, “PRODUCTS AND METHODS FOR STIMULATING AN IMMUNE RESPONSE” (priority 2008, published 2011)

Tested on: DN32.D3 cells
Experiment: αGalCer presentation by B cells to iNKT cells (IL-2 production)
Format: cell-based, mouse
Conditions: MD4 B cells pulsed with particles or soluble αGalCer, then cocultured with DN32.D3 cells; IL-2 by ELISA
Experimental: Splenic B cells were enriched by negative selection to >99% purity using B cell purification kit (Miltenyi Biotec). For analysis of αGalCer presentation, B cells were incubated overnight with particles containing αGalCer and/or HEL, extensively washed and cultured at 5×10^4 cells per well with the same number of DN32.D3 cells. NKT activation was assayed by measuring IL-2 production in the culture supernatant. For blocking experiments MD4 B cells were incubated with an antiCDld blocking antibody (25 μg/ml; clone 1B1) for 2 h before incubation with iNKT cells.
Concentration of IL-2 in the supernatant of the cultures was determined by ELISA using the JES6-1A12 capture antibody (BD Pharmingen). Biotinylated JSE6-5H4 (BD Pharmingen) was used for detection. Specific antibody in mice sera were measured using plates coated with antigen (HEL, OVA or CGG) and serial dilutions of sera. Bound antibodies were detected with biotin-labelled goat anti-mouse IgM, IgG, IgG1, IgG2b, IgG2c or IgG3 (BD Pharmingen).
We aspired to investigate the impact of targeting iNKT cell help to antigen specific B cells during the development of an immune response. […] Alexa-488-labeled-αGalCer was used to quantify the amount of αGalCer loaded on the beads, and we found this to be 150 ng per μl of beads (10^8 beads/μl). […]

**Q.** With `CCCCCCCCCCCCCCCCCCCCCCCCCC(=O)N[C@@H](CO[C@H]1O[C@H](CO)[C@H](O)[C@H](O)[C@H]1O)[C@H](O)[C@H](O)CCCCCCCCCCCCCC` [soluble αGalCer, α-galactosylceramide] as the molecule, how does the “iNKT cell activation (IL-2 production)” value read?
**A.** Its value is “efficiently presented by B cells and induced IL-2 production”.
